Results reported in ChEMBL document CHEMBL1136386, “Solid-phase synthesis of endothelin receptor antagonists” (Bioorg Med Chem Lett, 2003).

How the values were obtained:
[1] = target: T1, Endothelin receptor type B (Homo sapiens, UniProt P24530); assay: Antagonist activity against human Endothelin B receptor expressed in CHO cells; assay type: functional, cell-based
T1 sequence (P24530 whole entry): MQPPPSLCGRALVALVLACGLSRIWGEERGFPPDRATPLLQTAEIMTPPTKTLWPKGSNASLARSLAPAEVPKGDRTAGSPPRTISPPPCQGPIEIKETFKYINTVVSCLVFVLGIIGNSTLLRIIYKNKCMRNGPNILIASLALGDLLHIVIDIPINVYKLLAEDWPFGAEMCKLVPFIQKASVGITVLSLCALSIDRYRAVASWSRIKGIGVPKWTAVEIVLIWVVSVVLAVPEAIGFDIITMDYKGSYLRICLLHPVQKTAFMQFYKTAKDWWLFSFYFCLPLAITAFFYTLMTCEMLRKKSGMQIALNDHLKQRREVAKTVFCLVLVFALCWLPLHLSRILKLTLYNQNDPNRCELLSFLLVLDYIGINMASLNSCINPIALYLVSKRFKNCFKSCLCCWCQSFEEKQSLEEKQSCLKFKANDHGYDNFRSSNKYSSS

[2] = target: T2, Endothelin-1 receptor (Homo sapiens, UniProt P25101); assay: Antagonist activity against human ETA receptor using CHO cells; assay type: functional, cell-based
T2 sequence (P25101 whole entry): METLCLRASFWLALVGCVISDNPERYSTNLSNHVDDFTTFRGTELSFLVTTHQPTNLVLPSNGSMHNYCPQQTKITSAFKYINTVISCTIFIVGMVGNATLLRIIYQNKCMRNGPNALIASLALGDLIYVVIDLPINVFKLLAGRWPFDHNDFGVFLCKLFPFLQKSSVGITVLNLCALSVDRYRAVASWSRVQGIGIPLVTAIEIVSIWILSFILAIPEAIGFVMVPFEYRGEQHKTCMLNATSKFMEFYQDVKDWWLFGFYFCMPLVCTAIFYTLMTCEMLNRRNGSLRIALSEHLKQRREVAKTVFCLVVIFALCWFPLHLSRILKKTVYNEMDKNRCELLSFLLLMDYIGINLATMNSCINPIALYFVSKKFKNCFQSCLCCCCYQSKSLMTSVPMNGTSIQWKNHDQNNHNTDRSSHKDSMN

Ki [1]: 344 nM
Ki [2]: 2 nM
SMILES: CCOc1ccc(-c2cc(C)nc(OC(C(=O)O)C(C)(c3ccccc3)c3ccccc3)n2)cc1 (configuration not stated)
